{
  "source": "patent US7317012B2",
  "about": "“Bicyclic heterocycles as cannabinoind-1 receptor modulators” (Bristol-Myers Squibb Company, priority 2005, dated 2008)",
  "origin": "cited, not measured here",
  "key": {"[1]": {"conditions": "chronic administration for two weeks"}, "[2]": {"conditions": "human subjects, 16 week trial period"}},
  "note": "Where two headings read alike, the source gives them in different places.",
  "data": [
    {"smiles": "Cc1c(C(=O)NN2CCCCC2)nn(-c2ccc(Cl)cc2Cl)c1-c1ccc(I)cc1", "note": "[AM-251]", "values": [
      {"measurement": "body weight", "setting": "[1]", "value": "substantial body weight reduction"}
    ]},
    {"smiles": "Cc1c(C(=O)NN2CCCCC2)nn(-c2ccc(Cl)cc2Cl)c1-c1ccc(Cl)cc1", "note": "[SR-141716]", "values": [
      {"measurement": "body weight", "setting": "[2]", "value": "dose-dependently reduced body weight"}
    ]}
  ]
}
